In ChEMBL document CHEMBL1671675, “Population pharmacokinetics of ganciclovir after intravenous ganciclovir and oral valganciclovir administration in solid organ transplant patients infected with cytomegalovirus” (Antimicrob Agents Chemother, 2009):

Legend:
Homo sapiens [1] = assay: (§1) Clearance in solid organ transplant patient exhibiting […] creatinine clearance infected with cytomegalovirus at 5 mg/kg, iv bid for 5 days followed by 900 mg of oral valganciclovir dosed twice daily for 16 days dose adjustment for renal function by final population pharmacokinetic model; assay type: ADME, organism-based; parameters: dose 5 mg/kg, route oral; details: in vivo
Homo sapiens [2] = assay: (§2) Drug absorption in solid organ transplant patient exhibiting […] creatinine clearance infected with cytomegalovirus assessed as first-order absorption rate constant at 5 mg/kg, iv bid for 5 days followed by 900 mg of oral valganciclovir dosed twice daily for 16 days dose adjustment for renal function; assay type: ADME, organism-based; parameters: dose 5 mg/kg, route oral; details: in vivo
Homo sapiens [3] = assay: (§3) Clearance in solid organ transplant patient exhibiting […] creatinine clearance infected with cytomegalovirus at 5 mg/kg, iv bid for 5 days followed by 900 mg of oral valganciclovir dosed twice daily for 16 days dose adjustment for renal function by basal population pharmacokinetic model; assay type: ADME, organism-based; parameters: dose 5 mg/kg, route oral; details: in vivo
Homo sapiens [4] = assay: as §1, with “Intercompartmental clearance between central and peripheral compartments” for “Clearance”; assay type: ADME, organism-based; parameters: dose 5 mg/kg, route oral; details: in vivo
Homo sapiens [5] = assay: as §2, with “function by basal population pharmacokinetic model” for “function”; assay type: ADME, organism-based; parameters: dose 5 mg/kg, route oral; details: in vivo
Homo sapiens [6] = assay: as §3, with “Central volume of distribution” for “Clearance”; assay type: ADME, organism-based; parameters: dose 5 mg/kg, route oral; details: in vivo
[7] = Bioavailability in solid organ transplant patient exhibiting […] creatinine clearance infected with cytomegalovirus at 5 mg/kg, iv bid for 5 days followed by 900 mg of oral valganciclovir dosed twice daily for 16 days dose adjustment for renal function by final population pharmacokinetic model; assay type: ADME, organism-based; details: human, in vivo
[8] = Bioavailability in solid organ transplant patient exhibiting 57 mL/min creatinine clearance infected with cytomegalovirus at 5 mg/kg, iv bid for 5 days followed by 900 mg of oral valganciclovir dosed twice daily for 16 days dose adjustment for renal function by basal population pharmacokinetic model; details: human, in vivo
Homo sapiens [9] = assay: as §3, with “Intercompartmental clearance between central and peripheral compartments” for “Clearance”; assay type: ADME, organism-based; parameters: dose 5 mg/kg, route oral; details: in vivo
Homo sapiens [10] = assay: as §1, with “Central volume of distribution” for “Clearance”; assay type: ADME, organism-based; parameters: dose 5 mg/kg, route oral; details: in vivo

SMILES: Nc1nc(O)c2ncn(COC(CO)CO)c2n1 [GANCICLOVIR]
- CL (Homo sapiens [1]): 7.49 L/h
- Ka (Homo sapiens [2]): 0.895 h⁻¹
- CL (Homo sapiens [3]): 6.34 L/h
- CL (Homo sapiens [4]): 10.2 L/h
- Ka (Homo sapiens [5]): 0.971 h⁻¹
- Vd (Homo sapiens [6]): 32 L
- bioavailability [7]: 82.5%
- bioavailability [8]: 76%
- CL (Homo sapiens [9]): 9.65 L/h
- Vd (Homo sapiens [10]): 31.9 L
